Results taken from patent US11840686B2, “Modulation of prekallikrein (PKK) expression” (Ionis Pharmaceuticals, Inc., priority 2013, dated 2023).
Strand notation (5' to 3'): a small letter for the sugar, then the base; units joined by * are phosphorothioate-linked, units joined directly phosphodiester-linked; [ ] holds rarer units or linkages, { } end groups; capitals alone tell only the bases. e = 2'-O-(2-methoxyethyl) (MOE); [5mC] = 5-methylcytosine; d = 2'-deoxy (DNA)

Legend:
human PKK mRNA [1] = test: Antisense inhibition of human PKK mRNA in HepaRG cells, 5,000 nM (Example 2); assay type: cell-based
Summary of the method: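 Percent inhibition of PKK mRNA is reported relative to untreated cells, after adjustment for total RNA by RIBOGREEN. Gapmers of 16–20 nucleosides with 2′-MOE wings were delivered at 5,000 nM by electroporation into HepaRG cells and left for roughly 24 hours before RNA isolation.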

human PKK mRNA [2] = test: Dose-dependent antisense inhibition of human PKK in HepaRG cells, 0.19-5.00 uM (Example 5); assay type: cell-based; conditions: HepaRG cells; for percent inhibition of PKK at 0.19 μM / percent inhibition of PKK at 0.56 μM / percent inhibition of PKK at 1.67 μM / percent inhibition of PKK at 5.00 μM: electroporation, approximately 16 hours; for percent inhibition of PKK mRNA, 0.19 μM: 0.19 μM antisense oligonucleotide; for percent inhibition of PKK mRNA, 0.56 μM: 0.56 μM antisense oligonucleotide; for percent inhibition of PKK mRNA, 1.67 μM: 1.67 μM antisense oligonucleotide; for percent inhibition of PKK mRNA, 5.00 μM: 5.00 μM antisense oligonucleotide
Summary of the method: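 HepaRG cells (20,000/well) were electroporated with antisense oligonucleotide at 0.19, 0.56, 1.67 and 5.00 μM and treated for about 16 hours. PKK mRNA was quantified by qRT-PCR with primer probe set RTS3454, normalised to RIBOGREEN total RNA, and IC50 was derived per oligonucleotide.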

[3] = human PKK mRNA in HepaRG cells, 5-10-5 gapmers, Table 14
[4] = 4 point dose response, Table 39
[5] = 4 point dose response, Table 37
[6] = human PKK mRNA, HepaRG cells, 5-10-5 motif oligonucleotides targeting SEQ ID NO: 1 and 10
[7] = 4 point dose response, Table 35
[8] = HepaRG cells, 5,000 nM antisense oligonucleotide, 5-10-5 gapmers, Table 16
[9] = 4 point dose response, Table 40
[10] = HepaRG cells, 5,000 nM antisense oligonucleotide, 5-10-5 gapmers, Table 17

547616 (antisense eT*eG*eT*e[5mC]*e[5mC]*dT*dA*dT*dA*dT*d[5mC]*dA*d[5mC]*dT*dG*eT*eA*e[5mC]*e[5mC]*eT) [compound 547616]
% inhibition (human PKK mRNA [1]; [3]): 86% | percent inhibition of PKK at 0.19 μM (human PKK mRNA [2]; Table 39): 26% | percent inhibition of PKK at 0.56 μM (human PKK mRNA [2]; Table 39): 50% | percent inhibition of PKK at 1.67 μM (human PKK mRNA [2]; Table 39): 72% | percent inhibition of PKK at 5.00 μM (human PKK mRNA [2]; Table 39): 89% | IC50 (human PKK mRNA [2]; [4]): 0.6 µM

547617 (antisense e[5mC]*eT*eG*eT*e[5mC]*d[5mC]*dT*dA*dT*dA*dT*d[5mC]*dA*d[5mC]*dT*eG*eT*eA*e[5mC]*e[5mC]) [compound 547617]
% inhibition (human PKK mRNA [1]; [3]): 91% | percent inhibition of PKK at 0.19 μM (human PKK mRNA [2]; Table 36): 52% | percent inhibition of PKK at 0.56 μM (human PKK mRNA [2]; Table 36): 66% | percent inhibition of PKK at 1.67 μM (human PKK mRNA [2]; Table 36): 77% | percent inhibition of PKK at 5.00 μM (human PKK mRNA [2]; Table 36): 93% | IC50 (human PKK mRNA [2]; 4 point dose response, Table 36): 0.2 µM | percent inhibition of PKK mRNA, 0.19 μM (human PKK mRNA [2]): 17% | percent inhibition of PKK mRNA, 0.56 μM (human PKK mRNA [2]): 37% | percent inhibition of PKK mRNA, 1.67 μM (human PKK mRNA [2]): 79% | percent inhibition of PKK mRNA, 5.00 μM (human PKK mRNA [2]): 98% | IC50 (human PKK mRNA [2]; 0.19-5.00 μM): 0.7 µM

547618 (antisense eA*e[5mC]*eT*eG*eT*d[5mC]*d[5mC]*dT*dA*dT*dA*dT*d[5mC]*dA*d[5mC]*eT*eG*eT*eA*e[5mC]) [compound 547618]
% inhibition (human PKK mRNA [1]; [3]): 87% | percent inhibition of PKK at 0.19 μM (human PKK mRNA [2]; Table 37): 0% | percent inhibition of PKK at 0.56 μM (human PKK mRNA [2]; Table 37): 0% | percent inhibition of PKK at 1.67 μM (human PKK mRNA [2]; Table 37): 73% | percent inhibition of PKK at 5.00 μM (human PKK mRNA [2]; Table 37): 98% | IC50 (human PKK mRNA [2]; [5]): 1.3 µM

547622 (antisense eG*eT*e[5mC]*eA*e[5mC]*dT*dG*dT*dA*d[5mC]*d[5mC]*dT*dA*dT*dA*eA*e[5mC]*eT*e[5mC]*eT) [compound 547622]
% inhibition (human PKK mRNA [1]; [3]): 88% | percent inhibition of PKK at 0.19 μM (human PKK mRNA [2]; Table 37): 0% | percent inhibition of PKK at 0.56 μM (human PKK mRNA [2]; Table 37): 47% | percent inhibition of PKK at 1.67 μM (human PKK mRNA [2]; Table 37): 79% | percent inhibition of PKK at 5.00 μM (human PKK mRNA [2]; Table 37): 90% | IC50 (human PKK mRNA [2]; [5]): 0.9 µM

547632 (antisense eT*e[5mC]*eA*e[5mC]*eT*dG*dT*d[5mC]*d[5mC]*dT*dA*dT*dA*dT*d[5mC]*eA*e[5mC]*eT*e[5mC]*eT) [compound 547632]
% inhibition (human PKK mRNA [1]; [6]): 87% | percent inhibition of PKK at 0.19 μM (human PKK mRNA [2]; Table 39): 44% | percent inhibition of PKK at 0.56 μM (human PKK mRNA [2]; Table 39): 47% | percent inhibition of PKK at 1.67 μM (human PKK mRNA [2]; Table 39): 81% | percent inhibition of PKK at 5.00 μM (human PKK mRNA [2]; Table 39): 97% | IC50 (human PKK mRNA [2]; [4]): 0.6 µM | percent inhibition of PKK mRNA, 0.19 μM (human PKK mRNA [2]): 0% | percent inhibition of PKK mRNA, 0.56 μM (human PKK mRNA [2]): 0% | percent inhibition of PKK mRNA, 1.67 μM (human PKK mRNA [2]): 63% | percent inhibition of PKK mRNA, 5.00 μM (human PKK mRNA [2]): 91% | IC50 (human PKK mRNA [2]; 0.19-5.00 μM): 1.6 µM

547633 (antisense eA*eT*e[5mC]*eA*e[5mC]*dT*dG*dT*d[5mC]*d[5mC]*dT*dA*dT*dA*dT*e[5mC]*eA*e[5mC]*eT*e[5mC]) [compound 547633]
% inhibition (human PKK mRNA [1]; [6]): 87% | percent inhibition of PKK at 0.19 μM (human PKK mRNA [2]; Table 39): 12% | percent inhibition of PKK at 0.56 μM (human PKK mRNA [2]; Table 39): 46% | percent inhibition of PKK at 1.67 μM (human PKK mRNA [2]; Table 39): 78% | IC50 (human PKK mRNA [2]; [4]): 0.7 µM

547636 (eG*eT*eA*eT*e[5mC]*dA*d[5mC]*dT*dG*dT*dA*d[5mC]*dT*dA*dG*eT*eT*eT*eT*e[5mC]; antisense) [compound 547636]
% inhibition (human PKK mRNA [1]; [6]): 86% | percent inhibition of PKK at 0.19 μM (human PKK mRNA [2]; Table 38): 0% | percent inhibition of PKK at 0.56 μM (human PKK mRNA [2]; Table 38): 24% | percent inhibition of PKK at 1.67 μM (human PKK mRNA [2]; Table 38): 79% | percent inhibition of PKK at 5.00 μM (human PKK mRNA [2]; Table 38): 94% | IC50 (human PKK mRNA [2]; 4 point dose response, Table 38): 1.1 µM

547637 (eA*eG*eT*eA*eT*d[5mC]*dA*d[5mC]*dT*dG*dT*dA*d[5mC]*dT*dA*eG*eT*eT*eT*eT; antisense) [compound 547637]
% inhibition (human PKK mRNA [1]; [6]): 88% | percent inhibition of PKK at 0.19 μM (human PKK mRNA [2]; Table 37): 10% | percent inhibition of PKK at 0.56 μM (human PKK mRNA [2]; Table 37): 21% | percent inhibition of PKK at 1.67 μM (human PKK mRNA [2]; Table 37): 36% | percent inhibition of PKK at 5.00 μM (human PKK mRNA [2]; Table 37): 82% | IC50 (human PKK mRNA [2]; [5]): 1.8 µM

547647 (eG*eT*e[5mC]*e[5mC]*eT*dA*dT*dA*dT*d[5mC]*dA*d[5mC]*dT*dG*dT*eA*e[5mC]*e[5mC]*eT*eA; antisense) [compound 547647]
% inhibition (human PKK mRNA [1]; [6]): 92% | percent inhibition of PKK at 0.19 μM (human PKK mRNA [2]; Table 35): 1% | percent inhibition of PKK at 0.56 μM (human PKK mRNA [2]; Table 35): 70% | percent inhibition of PKK at 1.67 μM (human PKK mRNA [2]; Table 35): 72% | IC50 (human PKK mRNA [2]; [7]): 0.8 µM

547694 (antisense eG*eT*e[5mC]*eA*e[5mC]*dT*dG*dT*dA*d[5mC]*d[5mC]*dT*dA*dT*dA*eA*e[5mC]*eT*eG*eT) [compound 547694]
% inhibition (human PKK mRNA [1]; [8]): 92% | percent inhibition of PKK at 0.19 μM (human PKK mRNA [2]; Table 35): 0% | percent inhibition of PKK at 0.56 μM (human PKK mRNA [2]; Table 35): 29% | percent inhibition of PKK at 1.67 μM (human PKK mRNA [2]; Table 35): 67% | percent inhibition of PKK at 5.00 μM (human PKK mRNA [2]; Table 35): 90% | IC50 (human PKK mRNA [2]; [7]): 1.2 µM

547712 (antisense e[5mC]*e[5mC]*e[5mC]*e[5mC]*eA*dT*dG*dG*dT*dA*d[5mC]*d[5mC]*dA*dA*dA*eG*e[5mC]*e[5mC]*eA*eT) [compound 547712]
% inhibition (human PKK mRNA [1]; [8]): 79% | percent inhibition of PKK at 0.19 μM (human PKK mRNA [2]; Table 40): 0% | percent inhibition of PKK at 0.56 μM (human PKK mRNA [2]; Table 40): 5% | percent inhibition of PKK at 1.67 μM (human PKK mRNA [2]; Table 40): 21% | percent inhibition of PKK at 5.00 μM (human PKK mRNA [2]; Table 40): 62% | IC50 (human PKK mRNA [2]; [9]): 3.8 µM

547718 (eA*eT*eA*eA*eA*dG*dT*dG*d[5mC]*dG*dA*dT*dT*dA*dA*eG*e[5mC]*e[5mC]*e[5mC]*e[5mC]; antisense) [compound 547718]
% inhibition (human PKK mRNA [1]; [8]): 86% | percent inhibition of PKK at 0.19 μM (human PKK mRNA [2]; Table 39): 36% | percent inhibition of PKK at 0.56 μM (human PKK mRNA [2]; Table 39): 12% | percent inhibition of PKK at 1.67 μM (human PKK mRNA [2]; Table 39): 69% | percent inhibition of PKK at 5.00 μM (human PKK mRNA [2]; Table 39): 74% | IC50 (human PKK mRNA [2]; [4]): 1.6 µM

547722 (e[5mC]*eT*e[5mC]*e[5mC]*eA*dG*dT*d[5mC]*dA*d[5mC]*d[5mC]*dA*d[5mC]*d[5mC]*dA*eT*eT*eG*e[5mC]*e[5mC]; antisense) [compound 547722]
% inhibition (human PKK mRNA [1]; [8]): 80% | percent inhibition of PKK at 0.19 μM (human PKK mRNA [2]; Table 40): 0% | percent inhibition of PKK at 0.56 μM (human PKK mRNA [2]; Table 40): 15% | percent inhibition of PKK at 1.67 μM (human PKK mRNA [2]; Table 40): 32% | percent inhibition of PKK at 5.00 μM (human PKK mRNA [2]; Table 40): 73% | IC50 (human PKK mRNA [2]; [9]): 2.4 µM

547728 (eG*eA*eG*eA*eT*dT*dG*dG*dT*dG*dG*dT*dG*dG*dG*eT*eG*eG*e[5mC]*eA; antisense) [compound 547728]
% inhibition (human PKK mRNA [1]; [10]): 88% | percent inhibition of PKK at 0.19 μM (human PKK mRNA [2]; Table 40): 0% | percent inhibition of PKK at 0.56 μM (human PKK mRNA [2]; Table 40): 2% | percent inhibition of PKK at 1.67 μM (human PKK mRNA [2]; Table 40): 16% | percent inhibition of PKK at 5.00 μM (human PKK mRNA [2]; Table 40): 61% | IC50 (human PKK mRNA [2]; [9]): 4.4 µM

547731 (eG*eG*eA*eT*eT*dG*dG*dT*dG*dG*dT*dG*dG*dG*dA*eT*eT*eG*eG*eT; antisense) [compound 547731]
% inhibition (human PKK mRNA [1]; [10]): 49% | percent inhibition of PKK at 0.19 μM (human PKK mRNA [2]; Table 37): 0% | percent inhibition of PKK at 0.56 μM (human PKK mRNA [2]; Table 37): 0% | percent inhibition of PKK at 1.67 μM (human PKK mRNA [2]; Table 37): 17% | percent inhibition of PKK at 5.00 μM (human PKK mRNA [2]; Table 37): 56% | IC50 (human PKK mRNA [2]; [5]): 5 µM
